Laboratory results as given in patent publication US10357036B2, “Compounds for controlling arthropods” (priority 2015, dated 2019).

Columns and labels:
Spodoptera frugiperda = Spodoptera frugiperda spray test; type: in vivo; settings: after 7 days
Phaedon cochleariae = Phaedon cochleariae spray test; settings: 100 g/ha; after 7 days
Tetranychus urticae = Tetranychus urticae spray test, OP-resistant (bean leaf discs); type: in vivo; settings: 100 g/ha; after 6 days
Protocol: After 6 days, the efficacy in % is determined.

Boophilus microplus = Boophilus microplus injection test; type: in vivo; settings: 20 μg/animal; assessed after 7 days
Protocol: • Solvent: dimethyl sulfoxide
1 μl of the active ingredient solution is injected into the abdomen of 5 engorged adult female cattle ticks (Boophilus microplus). The animals are transferred into dishes and kept in a climate-controlled room.

Ctenocephalides felis = Ctenocephalides felis oral test; type: in vivo; settings: 100 ppm in citrated cattle blood; after 2 days
Protocol: • Solvent: Dimethyl Sulfoxide
To produce a suitable active ingredient formulation, 10 mg of active ingredient are mixed with 0.5 ml of dimethyl sulfoxide. Dilution with citrated cattle blood gives the desired concentration.
About 20 unfed adult cat fleas (Ctenocephalides fells) are placed into a chamber which is closed at the top and bottom with gauze. A metal cylinder whose bottom end is closed with parafilm is placed onto the chamber. The cylinder contains the blood/active ingredient formulation, which can be imbibed by the fleas through the parafilm membrane.

| Compound | efficacy (Spodoptera frugiperda; 100 g/ha) [%] | efficacy (Phaedon cochleariae) [%] | efficacy (Tetranychus urticae) [%] | efficacy (Spodoptera frugiperda; 20 g/ha) [%] | efficacy (laying of fertile eggs) (Boophilus microplus) [%] | efficacy (rate of extermination) (Ctenocephalides felis) [%] |
| --- | --- | --- | --- | --- | --- | --- |
| CC(=O)N(C)Cc1cc(-c2cnn(-c3c(F)cc(C(F)(C(F)(F)F)C(F)(F)F)cc3Br)c2)ccc1Cl [Ia-100] | 100 | 100 | 100 |  |  |  |
| CC(=O)NCc1cccc(-c2cnn(-c3c(Cl)cc(C(F)(C(F)(F)F)C(F)(F)F)cc3Cl)c2)c1 [Ia-09] | 100 | 100 | 90 |  |  |  |
| CC(=O)N(C)Cc1cc(-c2cnn(-c3c(Cl)cc(C(F)(C(F)(F)F)C(F)(F)F)cc3Cl)c2)ccc1Br [Ia-165] | 100 | 100 | 90 |  |  |  |
| CCC(=O)NCc1cc(-c2cn(-c3c(Cl)cc(C(F)(C(F)(F)F)C(F)(F)F)cc3Cl)nn2)ccc1Cl [I-T7-02] | 100 | 100 |  |  |  |  |
| CC(=O)NCc1cccc(-c2cnn(-c3c(Cl)cc(C(F)(C(F)(F)F)C(F)(F)F)cc3Cl)c2)c1F [Ia-153] |  | 100 |  |  |  |  |
| CC(=O)NC(C)c1cc(-c2cnn(-c3c(Cl)cc(C(F)(C(F)(F)F)C(F)(F)F)cc3Cl)c2)ccc1F (stereo not shown) [Ia-49] | 100 | 100 |  |  |  |  |
| CC(=O)NCc1cc(-c2cnn(-c3c(Cl)cc(C(F)(C(F)(F)F)C(F)(F)F)cc3OC(F)(F)F)c2)ccc1F [Ia-06] | 100 | 100 |  |  |  |  |
| CCC(=O)NC(C)c1cc(-c2cnn(-c3c(Cl)cc(C(F)(C(F)(F)F)C(F)(F)F)cc3Cl)c2)ccc1F (stereo not shown) [Ia-50] | 100 |  |  |  |  |  |
| CC(=O)NCc1cc(-c2cnn(-c3c(Cl)cc(C(F)(C(F)(F)F)C(F)(F)F)cc3Cl)c2)ccc1Br [Ia-164] | 100 | 100 | 100 |  |  |  |
| CC(=O)NCc1cc(-c2cn(-c3c(Cl)cc(C(F)(C(F)(F)F)C(F)(F)F)cc3Cl)cn2)ccc1F [I-T2-01] |  | 100 |  |  |  |  |
| CS(=O)(=O)c1cc(C(F)(C(F)(F)F)C(F)(F)F)cc(Cl)c1-n1cc(-c2ccc(F)c(CNC(=O)C3CC3)c2)cn1 [Ia-44] |  | 100 | 100 |  |  |  |
| CCC(=O)NCc1cc(-c2cnn(-c3c(Cl)cc(C(F)(C(F)(F)F)C(F)(F)F)cc3Cl)c2)c(F)cc1Cl [Ia-111] | 100 | 100 | 100 |  |  |  |
| CC(=O)NCc1cc(-c2cnn(-c3c(Cl)cc(C4(C(F)(F)F)CC4)cc3Cl)c2)ccc1F [Ia-124] |  | 100 |  |  |  |  |
| CC(=S)N(C)Cc1cc(-c2cnn(-c3c(Cl)cc(C(F)(C(F)(F)F)C(F)(F)F)cc3Cl)c2)ccc1Cl [Ia-163] | 83 | 100 | 100 |  |  |  |
| CCC(=O)NCc1cc(-c2cnn(-c3c(F)cc(C(F)(C(F)(F)F)C(F)(F)F)cc3Br)c2)ccc1Cl [Ia-94] | 100 | 100 |  |  |  |  |
| C[S+]([O-])c1cc(C(F)(C(F)(F)F)C(F)(F)F)cc(Cl)c1-n1cc(-c2ccc(F)c(CNC(=O)C3CC3)c2)cn1 (stereo not shown) [Ia-43] |  | 100 | 90 | 83 |  |  |
| O=C(NCc1cc(-c2cn(-c3c(Cl)cc(C(F)(C(F)(F)F)C(F)(F)F)cc3Cl)nn2)ccc1Cl)C1CC1 [I-T7-03] | 100 | 100 |  |  |  |  |
| CCC(=O)NCc1cc(-c2cnn(-c3c(Cl)cc(C(F)(C(F)(F)F)C(F)(F)F)cc3C#N)c2)ccc1F [Ia-103] | 100 | 100 |  |  |  |  |
| CCN(Cc1cc(-c2cnn(-c3c(Cl)cc(C(F)(C(F)(F)F)C(F)(F)F)cc3Cl)c2)ccc1Cl)C(C)=O [Ia-109] | 100 | 100 | 100 |  |  |  |
| CCC(=O)NCc1cc(-c2cnn(-c3c(Cl)cc(C(F)(C(F)(F)F)C(F)(F)F)cc3Cl)c2)ccc1C [Ia-81] | 100 |  | 100 |  |  |  |
| CCCN(Cc1cc(-c2cnn(-c3c(Cl)cc(C(F)(C(F)(F)F)C(F)(F)F)cc3Cl)c2)ccc1Cl)C(C)=O [Ia-112] | 100 | 100 | 90 |  |  |  |
| CC(=O)N(C)Cc1cc(-c2cnn(-c3c(Cl)cc(C(F)(C(F)(F)F)C(F)(F)F)cc3Br)c2)ccc1Cl [Ia-99] | 100 | 100 | 100 |  |  |  |
| CCC(=O)NCc1cc(-c2cnn(-c3c(Cl)cc(C4(C(F)(F)F)CC4)cc3Cl)c2)ccc1F [Ia-123] | 83 | 100 |  |  |  |  |
| O=C(CC(F)(F)F)NCc1cccc(-c2cnn(-c3c(Cl)cc(C(F)(C(F)(F)F)C(F)(F)F)cc3Cl)c2)c1 [Ia-21] | 100 | 100 |  |  |  |  |
| CC(=O)N(C)Cc1cc(-c2cnn(-c3c(Cl)cc(C(F)(C(F)(F)F)C(F)(F)F)cc3Cl)c2)ccc1C(F)(F)F [Ia-77] | 100 | 100 |  |  | 100 | 100 |

| Compound | efficacy (Spodoptera frugiperda; 100 g/ha) [%] | efficacy (Phaedon cochleariae) [%] | efficacy (Tetranychus urticae) [%] | efficacy (Spodoptera frugiperda; 20 g/ha) [%] | efficacy (laying of fertile eggs) (Boophilus microplus) [%] | efficacy (rate of extermination) (Ctenocephalides felis) [%] |
| --- | --- | --- | --- | --- | --- | --- |
| CCC(=O)NCc1cc(-c2cnn(-c3c(Cl)cc(C(F)(C(F)(F)F)C(F)(F)F)cc3OC(F)(F)F)c2)ccc1Cl [Ia-86] | 100 | 100 |  |  |  |  |
| CC(=O)N(C)Cc1cc(-c2cnn(-c3c(Cl)cc(C(F)(C(F)(F)F)C(F)(F)F)cc3OC(F)(F)F)c2)ccc1Cl [Ia-85] | 100 | 100 | 100 |  |  |  |
| O=C(NCc1cc(-c2cnn(-c3c(Cl)cc(C(F)(C(F)(F)F)C(F)(F)F)cc3Cl)c2)ccc1Cl)C(F)F [Ia-119] | 100 | 100 | 100 |  |  |  |
| CCC(=O)N(C)Cc1cc(-c2cnn(-c3c(Cl)cc(C(F)(C(F)(F)F)C(F)(F)F)cc3OC(F)(F)F)c2)ccc1Cl [Ia-87] | 100 | 100 | 100 |  |  |  |
| N-[1-(2-chloro-5-{1-[2,6-dichloro-4-(1,1,1,2,3,3,3-heptafluoropropan-2-yl)phenyl]-1H-pyrazol-4-yl}phenyl)ethyl]propanamide [Ia-47] | 83 | 100 |  |  |  |  |
| CN(Cc1cc(-c2cnn(-c3c(Cl)cc(C(F)(C(F)(F)F)C(F)(F)F)cc3Cl)c2)ccc1Cl)C(=O)C1CC1 [Ia-24] | 100 | 100 |  |  |  |  |
| CCC(=O)NCc1cc(-c2cnn(-c3c(Cl)cc(C(F)(C(F)(F)F)C(F)(F)F)cc3C#N)c2)ccc1Cl [Ia-114] | 100 | 100 |  |  |  |  |
| CCC(=O)NCc1cccc(-c2cnn(-c3c(Cl)cc(C(F)(C(F)(F)F)C(F)(F)F)cc3C#N)c2)c1 [Ia-97] |  | 100 |  |  |  |  |
| CCC(=O)NCc1cc(-c2cnn(-c3c(Cl)cc(C(F)(C(F)(F)F)C(F)(F)F)cc3C#N)c2)ccc1C [Ia-101] | 100 | 100 |  |  |  |  |
| O=S(=O)(NCc1cc(-c2cnn(-c3c(Cl)cc(C(F)(C(F)(F)F)C(F)(F)F)cc3Cl)c2)ccc1Cl)c1ccccc1 [Ic-05] | 100 | 100 |  |  |  |  |
| CCC(=O)N(C)Cc1cc(-c2cnn(-c3c(Cl)cc(C(F)(C(F)(F)F)C(F)(F)F)cc3Cl)c2)ccc1C(F)(F)F [Ia-78] |  | 100 |  |  |  |  |
| CC(C)(C)C(=O)NCc1cc(-c2cnn(-c3c(Cl)cc(C(F)(C(F)(F)F)C(F)(F)F)cc3C(F)F)c2)ccc1F [Ia-62] |  | 100 |  |  |  |  |
| CCC(=O)NCc1cc(-c2cnn(-c3c(Cl)cc(C(F)(C(F)(F)F)C(F)(F)F)cc3OC(F)F)c2)cnc1Cl [Ia-160] | 100 | 100 | 100 |  |  |  |
| CCC(=O)NCc1cccc(-c2cnn(-c3c(Cl)cc(C(F)(C(F)(F)F)C(F)(F)F)cc3C(F)F)c2)c1 [Ia-39] | 100 | 100 | 100 |  |  |  |
| CCC(=O)N(C)Cc1cc(-c2cnn(-c3c(Cl)cc(C(F)(C(F)(F)F)C(F)(F)F)cc3OC(F)(F)F)c2)ccc1F [Ia-27] | 100 | 100 | 100 |  |  |  |
| CCC(=O)NCc1cc(-c2cn(-c3c(Cl)cc(C(F)(C(F)(F)F)C(F)(F)F)cc3Cl)cn2)ccc1F [I-T2-03] |  | 100 |  |  |  |  |
| CCC(=O)N(C)Cc1cc(-c2cnn(-c3c(Cl)cc(C(F)(C(F)(F)F)C(F)(F)F)cc3Cl)c2)ccc1Br [Ia-167] | 100 | 100 | 100 |  |  |  |
| CC(=O)N(C)Cc1cc(-c2cnn(-c3c(Cl)cc(C(F)(C(F)(F)F)C(F)(F)F)cc3Cl)c2)c(F)cc1Cl [Ia-110] | 100 | 100 |  |  |  |  |
| CCC(=O)NCc1cc(-c2cnn(-c3c(Cl)cc(C(F)(C(F)(F)F)C(F)(F)F)cc3Cl)c2)ccc1Br [Ia-166] | 100 | 100 | 100 |  |  |  |
| O=C(NCc1cc(-c2cnn(-c3c(Cl)cc(C(F)(C(F)(F)F)C(F)(F)F)cc3Cl)c2)ccc1Cl)C(F)(F)F [Ia-120] | 100 | 100 | 100 |  |  |  |
| CC(=O)NCc1cc(-c2cnn(-c3c(F)cc(C(F)(C(F)(F)F)C(F)(F)F)cc3Br)c2)ccc1Cl [Ia-92] | 100 | 100 | 100 |  |  |  |
| Cc1cc(C(F)(C(F)(F)F)C(F)(F)F)cc(Cl)c1-n1cc(-c2cccc(CNC(=O)C3CC3)c2)cn1 [Ia-70] |  | 100 |  |  |  |  |
| CC(=O)NCc1cc(-c2cnn(-c3c(Cl)cc(S(=O)(=O)C(F)(F)F)cc3Cl)c2)ccc1Cl [Ia-88] | 83 | 100 | 100 |  | 100 | 100 |
| CCC(=O)NCc1cc(-c2cnn(-c3c(Cl)cc(C(F)(C(F)(F)F)C(F)(F)F)cc3Br)c2)ccc1Cl [Ia-89] | 100 | 100 | 90 |  |  |  |
